Activity calls are given as the source filed them. Rule as the data show it: actives have a measured IC50 and inactives only a lower limit.

In the assay the target is Envelope glycoprotein gp160 (Human immunodeficiency virus 1, UniProt Q6QLK5). Nature of the assay: inhibitors of HIV fusion peptide binding, primary screen, biochemical, uHTS, fluorescence dequenching (AID 1986).
Sequence of Envelope glycoprotein gp160 (Q6QLK5 whole entry, the tested form may be a part): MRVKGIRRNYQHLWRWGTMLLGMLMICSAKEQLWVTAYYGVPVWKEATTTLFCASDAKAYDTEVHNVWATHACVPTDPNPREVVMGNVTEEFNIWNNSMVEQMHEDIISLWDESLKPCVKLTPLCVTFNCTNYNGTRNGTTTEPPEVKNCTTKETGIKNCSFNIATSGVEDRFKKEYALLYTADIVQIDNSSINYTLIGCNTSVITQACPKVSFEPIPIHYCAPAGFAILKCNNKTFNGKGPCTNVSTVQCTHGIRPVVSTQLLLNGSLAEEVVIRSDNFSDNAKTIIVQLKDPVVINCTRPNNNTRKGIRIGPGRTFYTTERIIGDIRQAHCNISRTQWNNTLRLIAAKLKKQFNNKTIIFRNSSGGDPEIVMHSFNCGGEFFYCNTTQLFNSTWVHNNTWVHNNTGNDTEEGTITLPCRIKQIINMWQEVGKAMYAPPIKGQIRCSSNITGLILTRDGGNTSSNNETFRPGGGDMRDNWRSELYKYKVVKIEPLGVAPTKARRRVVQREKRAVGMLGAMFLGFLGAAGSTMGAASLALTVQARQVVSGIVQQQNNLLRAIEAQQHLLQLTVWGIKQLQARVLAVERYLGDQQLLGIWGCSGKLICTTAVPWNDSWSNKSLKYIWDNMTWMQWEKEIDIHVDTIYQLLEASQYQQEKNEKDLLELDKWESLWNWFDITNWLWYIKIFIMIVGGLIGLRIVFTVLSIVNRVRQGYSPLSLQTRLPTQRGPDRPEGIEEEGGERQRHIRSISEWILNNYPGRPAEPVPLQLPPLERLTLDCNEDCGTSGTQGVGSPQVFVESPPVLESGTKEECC
As a reminder, the IC50 is the concentration at which inhibition is half-maximal. In the case of `COc1ccc(-c2csc(NC(=O)c3ccccc3NS(=O)(=O)c3ccc(C)cc3)n2)cc1`, the IC50 was 12.4 µM (active).
In the case of `CCCCCNC(=O)c1ccc2c(=O)[nH]c3c(C(=O)NCC4CCCO4)sc(=S)n3c2c1` (stereo not drawn), the IC50 is 20 µM (active).
Regarding `CC(C)(C)c1ccc2c(c1)OC(C(=O)N/N=C\c1ccc(-c3cccc(C(=O)O)c3)o1)CO2` (stereo not drawn), the IC50 was 14.1 µM (active).

Values taken from ChEMBL document CHEMBL1201862, “PubChem BioAssay data set” (2004).
